# Data as given in patent EP0399814A2, “Phenol derivatives for promoting human nerve growth factor” (Sankyo Company Limited, priority 1989, dated 1990).
# System: L-M cells
# Assay: NGF production and secretion by L-M cells (Furukawa method), NGF level in medium determined by enzyme immunoassay
# Assay type: cell-based, mouse
# Details: Mus musculus; compounds of the invention at 10 γ/ml; L-M cells cultured 24 hours; NGF amount relative to cells not treated with test compound; read-out: % Control
# Source text: Furukawa et al. reported that L-M cells of a fibroblast cell line from mouse connective tissue can produce and secrete a relatively large amount of NGF, and that catecholamines accelerate such production and secretion of NGF (J. Biol. Chem., 261, 6039-6047, 1986). Following the test method described in this Furukawa paper, but using the compounds of the invention and recognized NGF promoters epinephrine, isoproterenol, L-DOPA, and caffeic acid, NGF production and secretion activities were examined. The test compounds of this invention were employed at 10 γ/ml, and the known compounds were employed at 20 γ/ml.
# Culture medium 199 containing 0.5% peptone was used for culturing L-M cells (for the culture medium 199, see, for instance, Morgan et al., Proc. Soc. Exp. Biol. Med., 73, 1 (1950) or Morgan et al. J. Natl. Cancer Inst., 16, 557 (1955). About 5 x 10⁴ of L-M cells were placed in each well of a culture plate with 24 wells, and cultured using a CO₂ incubator (37°C, 5% CO₂) until confluence. After removing the culture medium, the cultured cells were washed once with 199 culture medium containing 0.5% bovine serum albumin (Fraction V, Sigma). The test compounds were added to a specified concentration to a 199 culture medium containing 0.5% bovine serum albumin, and treated with 0.5 ml of L-M cells. After culturing the L-M cells in a CO₂ incubator for 24 hours, the medium was recovered and the NGF level was determined.
# NGF was determined using an enzyme immunoassay (Korshing and Thoenen, Proc. Natl. Acad. Sci. USA, 80, 3513-3516, 1983). A solution (each 75 µl) of anti-mouse β-NGF antibody (0.3 µg/ml, pH 9.6; Boehringer Mannheim) was pipetted into each well of a polystyrene plate with 96 wells. After allowing the plate to stand at room temperature for an hour, the antibody was removed by washing three times with detergent solution. A solution (50 µl) of standard β-NGF (Wako Pure Chemical Industries Ltd.) or the recovered medium (50 µl) for each of the test compounds was pipetted into each well. After allowing the plate to stand at room temperature for 6 - 8 hours, the standard β-NGF or test solution was removed and each well was washed three times. A solution (50 µl) of β-NGF monoclonal antibody (100 mU/ml, pH 7.0; Boehringer Mannheim) labelled with β-galactosidase was pipetted into each well. After allowing the plate to stand at 4°C for 15 - 18 hours, enzyme labelled antibody was removed and the wells washed three times followed by pipetting a solution (100 µl) of chlorophenol red-β-D-galactopyranoside (1 mg/ml, pH 7.3; Boehringer Mannheim) into each well. Colour was allowed to develop (2 - 3 hours at room temperature), and the absorbance was determined at 570 nm. The amount of NGF was calculated from a standard curve. The results are expressed as a relative value (%) which is relative to the amount of NGF produced and secreted by cells treated not with the test compounds. The numerical values (% control) are expressed by the mean value in the 3 wells of the control (without addition of the test compounds).
row,SMILES,activity at 10 µg/mL [%]
1,"CC(=O)Oc1cc2c(cc1OC(C)=O)CCC(C(=O)Nc1ccc(Cl)cc1Cl)=C2 [Example 94, N-(2,4-dichlorophenyl)-6,7-diacetoxy-3,4-dihydro-2-naphthamide]",459
2,"CC(=O)Oc1cc2c(cc1OC(C)=O)CCC(C(=O)NC13CC4CC(CC(C4)C1)C3)=C2 [Example 96, N-(1-adamantyl)-6,7-diacetoxy-3,4-dihydro-2-naphthamide]",558
3,"CC(=O)Oc1cc2c(cc1OC(C)=O)CCC(C(=O)Nc1cnc3ccccc3c1)=C2 [Example 95, N-(3-quinolyl)-6,7-diacetoxy-3,4-dihydro-2-naphthamide]",341
4,"CC(=O)Oc1cc2c(cc1OC(C)=O)CC(C(=O)NC13CC4CC(CC(C4)C1)C3)CC2 (centres unmarked) [Example 93, N-(1-adamantyl)-6,7-diacetoxy-1,2,3,4-tetrahydro-2-naphthamide]",941
5,"CC(=O)Oc1cc2c(cc1OC(C)=O)CC(C(=O)Nc1ccc(Cl)cc1Cl)CC2 (centres unmarked) [Example 91, N-(2,4-dichlorophenyl)-6,7-diacetoxy-1,2,3,4-tetrahydro-2-naphthamide]",575

# Same assay, conditions: Mus musculus; known compounds at 20 γ/ml; L-M cells cultured 24 hours; NGF amount relative to cells not treated with test compound; read-out: % Control
row,SMILES,activity at 20 µg/mL [%]
1,"CNC[C@H](O)c1ccc(O)c(O)c1 [epinephrine, reference compound]",140 ± 24
2,"O=C(O)/C=C/c1ccc(O)c(O)c1 [caffeic Acid, caffeic acid, reference compound]",123 ± 14
3,"N[C@@H](Cc1ccc(O)c(O)c1)C(=O)O [L-DOPA, reference compound]",117 ± 7
4,"CC(C)NCC(O)c1ccc(O)c(O)c1 (centres unmarked) [isoproterenol, reference compound]",168 ± 22

# Same assay, conditions: compounds of the invention at 10 γ/ml; L-M cells cultured 24 hours; NGF amount relative to cells not treated with test compound
row,SMILES,% Control [%]
1,"CC(=O)Oc1ccc(CCC(=O)Nc2cc(Cl)ccc2Cl)cc1OC(C)=O [Example 1, N-(2,5-dichlorophenyl)-3,4-diacetoxyphenylpropionamide]",201
2,"CC(=O)Oc1ccc(CCCC(=O)NC23CC4CC(CC(C4)C2)C3)cc1OC(C)=O [Example 46, N-(1-adamantyl)-3,4-diacetoxyphenylbutyrylamide]",939
